Measured values taken from patent US20140221282A1, “LONG DURATION DUAL HORMONE CONJUGATES” (priority 2011, published 2014).
Ends that are not written are not given here. Y‑shaped‑mPEG40KD = Y-shaped methoxy-PEG of 40 kDa attached to the Lys side chain; mPEG40KD = methoxy-PEG of 40 kDa

How the values were obtained:
[1] = Body weight change in lean rats; assay type: in vivo; settings: for body weight reduction: SC 125 nmol/kg (FIG. 17)
Description: Lean rats were administered a subcutaneous (SC) once weekly injection of test compound (125 nmol/kg) or vehicle. FIGS. 13A-13B provide the result of a multi-day food intake assays. The effect on 24-hour food intake was investigated for Cmpds 69, 73, 72, 70, and 74, using vehicle as control. […] In the case of some of the compounds, weight loss was still evident even after one week.
The effect on 24-hour food intake, as judged with SC injection (125 nmol/kg), was investigated for Cmpds 74, 76, 77 and 78.
Test animals (lean rats) were injected SC at 125 nmol/kg, and body weight corrected for vehicle (FIG. 19A) and cumulative food intake (FIG. 19B) were determined for 7-days. As shown in FIGS. 19A-19B, most compounds in the tested series provided weight loss which was still evident after 7-days.

Food intake in lean rats = assay type: in vivo; settings: for food intake: SC once weekly injection 125 nmol/kg
Description: A variety of food intake assays are available to one of skill in the art. For example, in the so-called “home cage model” of food intake, subjects (e.g., rats) are maintained in their home cage, and food intake along with total weight of the subject is measured following injection of test compound. In the so-called “feeding patterns model” of food intake assay, subjects (e.g., rats) are habituated to a feeding chamber and to injections prior to testing. After test compound administration, the subjects are immediately placed into the feeding chamber, and food intake is automatically determined as a function of time (e.g., 1-min intervals). For both tests, the food is standard chow or any of a variety of chows (e.g., high fat) known in the art. In the so-called “mouse food intake” assay, a test compound may be tested for appetite suppression, or for an effect on body weight gain in diet-induced obesity (DIO) mice. In a typical mouse food intake assay, female NIH/Swiss mice (8-24 weeks old) are group housed with a 12:12 hour light:dark cycle with lights on at 0600. Water and a standard pelleted mouse chow diet are available ad libitum, except as noted. Animals are fasted starting at approximately 1500 hrs, I day prior to experiment. The morning of the experiment, animals are divided into experimental groups. In a typical study, n=4 cages with 3 mice/cage. At time=0 min, all animals are given an intraperitoneal injection of vehicle or compound, typically in an amount ranging from about 10 nmol/kg to 75 nmol/kg, and immediately given a pre-weighed amount (10-15 g) of the standard chow. Food is removed and weighed at various times, typically 30, 60, and 120 minutes, to determine the amount of food consumed. See e.g., Morley et al., 1994, Am. J. Physiol. 267:R178-R184). Food intake is calculated by subtracting the weight of the food remaining at the e.g. 30, 60, 120, 180 and/or 240 minute time point, from the weight of the food provided initially at time=0. Significant treatment effects are identified by ANOVA (p<0.05). Where a significant difference exists, test means are compared to the control mean using Dunnett's test (Prism v. 2.01, GraphPad Software Inc., San Diego, Calif.). For any test described herein, administration of test compound can be by any means, including injection (e.g., subcutaneous, intraperitoneal, and the like), oral, or other methods of administration known in the art.
FIGS. 13A-13B provide the result of a multi-day food intake assays. The effect on 24-hour food intake was investigated for Cmpds 69, 73, 72, 70, and 74, using vehicle as control. […] In the case of some of the compounds, weight loss was still evident even after one week. […]
As shown in FIGS. 19A-19B, most compounds in the tested series provided weight loss which was still evident after 7-days.

amylin receptor = assay: Amylin receptor binding assay, rat nucleus accumbens membranes; settings: 125I-rat amylin displacement
Source text: Dried glass fiber plates were combined with scintillant and counted on a multi-well Perkin Elmer scintillation counter, as well known in the art.

[2] = Body weight change in lean rats; assay type: in vivo; settings: for body weight reduction: Cmpd 77 31.25-250 nmol/kg, Cmpd 79 250 nmol/kg (FIG. 18)
[3] = Body weight change in diet induced obese (DIO) rats; assay type: in vivo, DIO Sprague Dawley rats; settings: SC once a week 125 nmol/kg, four weeks
Description: The effect of Cmpd 14 on body weight was examined in male outbred diet-induced obese Sprague Dawley rats. Percent vehicle-corrected change in body weight was measured relative to PEGylated parent peptides alone and in combination. […]
Specifically, in this experiment the duration of action on food intake and change in body weight was compared for compounds having a single active peptide element (Cmpd 6 and Cmpd 7) relative to the combined dosing of these compounds, and further relative to LDDHC Cmpd 14, having the active peptide elements of Cmpds 6-7 separated by a 40 kDa PEG water-soluble polymeric spacer. […] In the combination dosing, each of Cmpd 6 and Cmpd 7 was administered at 32 nmol/kg. The test subjects were DIO rats (n=6/group, body weight baseline=478 g). […]
Plasma drug levels were determined by ELISA assay.
[…] The baseline body weight was 505 gm.

[4] = SC once weekly injection 125 nmol/kg
[5] = Cmpd 77 31.25-250 nmol/kg, Cmpd 79 250 nmol/kg (FIG. 18)

Row | Molecule | body weight [1, 4] | food intake (Food intake in lean rats) | IC50 (amylin receptor) [nM] | other results
1 | [K^31(mPEG40KD)]-Cmpd 55 (KCNTATCATQRLANFLVRSSNNLGPVLPPTK(mPEG40KD)VGSNTY-NH2; cysteine pairing not given here) [Cmpd 73] | efficacious | efficacious | – | –
2 | [K^31(mPEG40KD)]-Cmpd 61 (CNTATCATQRLANFLVHSSNNFGPILPPTK(mPEG40KD)VGSNTY-NH2; cysteine pairing not given here) [Cmpd 78] | – | – | – | body weight reduction [1]: at least as efficacious as Cmpd 74; food intake reduction (Food intake in lean rats; SC 125 nmol/kg (FIG. 17)): at least as efficacious as Cmpd 74
3 | [K^26(mPEG40KD)]-Cmpd 54 (CNTATCATQRLANFLVRSSNNLGPK(mPEG40KD)LPPTNVGSNTY-NH2; cysteine pairing not given here) [Cmpd 72] | efficacious | efficacious | – | –
4 | [K^26(Y-shaped-mPEG40KD)]-Cmpd 53 (KCNTATCATQRLANFLVRSSNNLGPK(Y‑shaped‑mPEG40KD)LPPTNVGSNTY-NH2; cysteine pairing not given here) [Cmpd 75] | – | – | 470 | body weight ([1]; single SC dose, y-branched vs linear PEG): not as efficacious as the linear pegylated version, Cmpd 71
5 | [K^21(mPEG40KD)]-Cmpd 52 (CNTATCATQRLANFLVRSSK(mPEG 40 kDa)NLGPVLPPTNVGSNTY-NH2; cysteine pairing not given here) [Cmpd 70] | efficacious | efficacious | – | –
6 | [K^31(mPEG40KD)]-Cmpd 56 (CNTATCATQRLANFLVRSSNNLGPVLPPTK(mPEG40KD)VGSNTY-NH2; cysteine pairing not given here) [Cmpd 74] | efficacious | efficacious | – | –
7 | mPEG40KD-Cmpd 50 (CNTATCATQRLANFLVRSSNNLGPVLPPTNVGSNTY-NH2; cysteine pairing not given here; also: mPEG40KD attached, site not given here) [Cmpd 68] | – | – | 78 | –
8 | [K^26(mPEG40KD)]-Cmpd 60 (CNTATCATQRLANFLVHSSNNFGPK(mPEG40KD)LPPTNVGSNTY-NH2; cysteine pairing not given here) [Cmpd 77] | – | – | – | body weight reduction [1]: at least as efficacious as Cmpd 74; food intake reduction (Food intake in lean rats; [5]): dose dependent efficacy; food intake reduction (Food intake in lean rats; SC 125 nmol/kg (FIG. 17)): at least as efficacious as Cmpd 74; body weight reduction [2]: dose dependent efficacy
9 | CC(C)C[C@H](NC(=O)[C@H](CC(N)=O)NC(=O)[C@H](CC(N)=O)NC(=O)[C@H](CO)NC(=O)[C@H](CO)NC(=O)[C@H](CCCNC(=N)N)NC(=O)[C@@H](NC(=O)[C@H](CC(C)C)NC(=O)[C@H](Cc1ccccc1)NC(=O)[C@H](CC(N)=O)NC(=O)[C@H](C)NC(=O)[C@H](CC(C)C)NC(=O)[C@H](CCCNC(=N)N)NC(=O)[C@H](CCC(N)=O)NC(=O)[C@@H](NC(=O)[C@H](C)NC(=O)[C@@H]1CSSC[C@H](NC(=O)[C@@H](N)CCCCN)C(=O)N[C@@H](CC(N)=O)C(=O)N[C@@H]([C@@H](C)O)C(=O)N[C@@H](C)C(=O)N[C@@H]([C@@H](C)O)C(=O)N1)[C@@H](C)O)C(C)C)C(=O)NCC(=O)N1CCC[C@H]1C(=O)N[C@H](C(=O)N[C@@H](CC(C)C)C(=O)N1CCC[C@H]1C(=O)N1CCC[C@H]1C(=O)N[C@H](C(=O)N[C@@H](CC(N)=O)C(=O)N[C@H](C(=O)NCC(=O)N[C@@H](CO)C(=O)N[C@@H](CC(N)=O)C(=O)N[C@H](C(=O)N[C@@H](Cc1ccc(O)cc1)C(N)=O)[C@@H](C)O)C(C)C)[C@@H](C)O)C(C)C [Cmpd 49, reference compound] | – | – | 0.1 | –
10 | [K^21(mPEG40KD)]-Cmpd 51 (KCNTATCATQRLANFLVRSSK(mPEG 40 kDa)NLGPVLPPTNVGSNTY-NH2; cysteine pairing not given here) [Cmpd 69] | efficacious | efficacious | – | –
11 | [K^26(mPEG40KD)]-Cmpd 53 (KCNTATCATQRLANFLVRSSNNLGPK(mPEG40KD)LPPTNVGSNTY-NH2; cysteine pairing not given here) [Cmpd 71] | – | – | 66 | weight loss [3]: not as efficacious as infused Cmpd 49; food intake, dose response (Food intake in lean rats; 12-250 nmol/kg): reduced body weight and food intake in a dose dependent fashion; body weight, dose response ([2]; 12-250 nmol/kg): reduced body weight and food intake in a dose dependent fashion
12 | [K^21(mPEG40KD)]-Cmpd 59 (CNTATCATQRLANFLVHSSK(mPEG 40 kDa)NFGPILPPTNVGSNTY-NH2; cysteine pairing not given here) [Cmpd 76] | – | – | – | body weight reduction [1]: at least as efficacious as Cmpd 74; food intake reduction (Food intake in lean rats; SC 125 nmol/kg (FIG. 17)): at least as efficacious as Cmpd 74
13 | [K^26(Y-shaped-mPEG40KD)]-Cmpd 60 (CNTATCATQRLANFLVHSSNNFGPK(Y‑shaped‑mPEG40KD)LPPTNVGSNTY-NH2; cysteine pairing not given here) [Cmpd 79] | – | – | – | food intake reduction (Food intake in lean rats; [5]): not as efficacious as the linear pegylated version, Cmpd 77; body weight reduction [2]: not as efficacious as the linear pegylated version, Cmpd 77
14 | CNTATCATQRLANFLVRSSNNLGPVLPPTNVGSNTY [Cmpd 50, [des-Lys^1]-Cmpd 49] | – | – | 0.42 | –
